According to PubChem BioAssay (NCI):
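Interpolation was linear, between the two tested concentrations surrounding the appropriate level; five concentrations were tested over 48 hours in 96-well plates. GI50 = concentration required for 50% inhibition of growth. At the TGI there is no net growth.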

Assays:
Assay in all cases: NCI tumour cell line growth inhibition, 48 h
[1] = tested on: 786-0 renal
[2] = tested on: A549 NSCLC
[3] = tested on: ACHN renal
[4] = tested on: BT-549 breast
[5] = tested on: CAKI-1 renal
[6] = tested on: CCRF-CEM leukemia
[7] = tested on: COLO 205 colon
[8] = tested on: DU-145 prostate
[9] = tested on: EKVX NSCLC
[10] = tested on: HCT-116 colon
[11] = tested on: HCT-15 colon
[12] = tested on: HOP-62 NSCLC
[13] = tested on: HS 578T breast
[14] = tested on: HT29 colon
[15] = tested on: IGROV1 ovarian
[16] = tested on: K-562 leukemia
[17] = tested on: KM12 colon
[18] = tested on: LOX IMVI melanoma
[19] = tested on: M14 melanoma
[20] = tested on: MALME-3M melanoma
[21] = tested on: MCF7 breast
[22] = tested on: MDA-MB-231 breast
[23] = tested on: MDA-MB-435
[24] = tested on: MOLT-4 leukemia
[25] = tested on: NCI-H226 lung
[26] = tested on: NCI-H23 lung
[27] = tested on: NCI-H460 lung
[28] = tested on: NCI-H522 lung
[29] = tested on: NCI/ADR-RES ovarian
[30] = tested on: OVCAR-3 ovarian
[31] = tested on: OVCAR-4 ovarian
[32] = tested on: OVCAR-5 ovarian
[33] = tested on: OVCAR-8 ovarian
[34] = tested on: PC-3 prostate
[35] = tested on: RPMI-8226 leukemia
[36] = tested on: RXF 393 renal
[37] = tested on: SF-268 CNS
[38] = tested on: SF-295 CNS
[39] = tested on: SK-MEL-2 melanoma
[40] = tested on: SK-MEL-28 melanoma
[41] = tested on: SK-MEL-5 melanoma
[42] = tested on: SK-OV-3 ovarian
[43] = tested on: SN12C renal
[44] = tested on: SNB-19 CNS
[45] = tested on: SR leukemia
[46] = tested on: SW-620 colon
[47] = tested on: T-47D breast
[48] = tested on: TK-10 renal
[49] = tested on: U251 CNS
[50] = tested on: UACC-62 melanoma
[51] = tested on: UO-31 renal

Work on `Cc1ccc(O)c(NC2=C(Cl)C(=O)N(Cc3ccccc3)C2=O)c1` yielded a GI50 [1] of 29.6 µM, a TGI [1] of 86.1 µM and a GI50 [2] of 27.1 µM. It also gave a TGI [2] of 91.3 µM, a GI50 [3] of 32.4 µM and a TGI [3] greater than 100 µM. The GI50 [4] was 18.1 µM, the TGI [4] was 67.3 µM and the GI50 [5] was 27.5 µM. For the same compound, the TGI [5] was 82.3 µM, the GI50 [6] was 4.54 µM and the TGI [6] was 29 µM. The GI50 [7] was 28.4 µM, the TGI [7] was greater than 100 µM and the GI50 [8] was 27.8 µM. It also gave a TGI [8] of 95.9 µM, a GI50 [9] of 35.9 µM and a TGI [9] greater than 100 µM. For the same compound, the GI50 [10] was 31.2 µM, the TGI [10] was greater than 100 µM and the GI50 [11] was 25.3 µM. It also gave a TGI [11] of 72.6 µM, a GI50 [12] of 25.4 µM and a TGI [12] of 72.5 µM. It also gave a GI50 [13] of 21.2 µM, a TGI [13] of 65.3 µM and a GI50 [14] of 33.3 µM. It also gave a TGI [14] greater than 100 µM, a GI50 [15] of 6.44 µM and a TGI [15] of 24.2 µM. It also gave a GI50 [16] of 12.4 µM, a TGI [16] of 59.6 µM and a GI50 [17] of 40.7 µM. For the same compound, the TGI [17] was greater than 100 µM, the GI50 [18] was 20.3 µM and the TGI [18] was 45.7 µM. For the same compound, the GI50 [19] was 22.5 µM, the TGI [19] was 70.6 µM and the GI50 [20] was 23 µM. It also gave a TGI [20] of 67.5 µM, a GI50 [21] of 16.2 µM and a TGI [21] of 48.8 µM. It also gave a GI50 [22] of 12.6 µM, a TGI [22] of 32.3 µM and a GI50 [23] of 28.4 µM. The TGI [23] was 76.1 µM, the GI50 [24] was 1.55 µM and the TGI [24] was 74.2 µM. For the same compound, the GI50 [25] was 15 µM, the TGI [25] was 37.3 µM and the GI50 [26] was 25.8 µM. It also gave a TGI [26] of 68.6 µM, a GI50 [27] of 28.6 µM and a TGI [27] greater than 100 µM. The GI50 [28] was 13.1 µM, the TGI [28] was 29.9 µM and the GI50 [29] was 38.1 µM. The TGI [29] was greater than 100 µM, the GI50 [30] was 14.9 µM and the TGI [30] was 32.9 µM. It also gave a GI50 [31] of 31.7 µM, a TGI [31] greater than 100 µM and a GI50 [32] of 33.3 µM. The TGI [32] was 89.1 µM, the GI50 [33] was 18.3 µM and the TGI [33] was 39.3 µM. It also gave a GI50 [34] of 38.7 µM, a TGI [34] greater than 100 µM and a GI50 [35] of 7.7 µM. It also gave a TGI [35] of 36.6 µM, a GI50 [36] of 15 µM and a TGI [36] of 39.3 µM. It also gave a GI50 [37] of 18.8 µM, a TGI [37] of 47.1 µM and a GI50 [38] of 26.2 µM. It also gave a TGI [38] of 71.2 µM, a GI50 [39] of 19 µM and a TGI [39] of 39 µM. It also gave a GI50 [40] of 22.3 µM, a TGI [40] of 54.1 µM and a GI50 [41] of 21.1 µM. For the same compound, the TGI [41] was 40.7 µM, the GI50 [42] was 80.5 µM and the TGI [42] was greater than 100 µM. For the same compound, the GI50 [43] was 14.9 µM, the TGI [43] was 32.7 µM and the GI50 [44] was 46 µM. It also gave a TGI [44] greater than 100 µM, a GI50 [45] of 18.3 µM and a TGI [45] of 84.9 µM. It also gave a GI50 [46] of 32.5 µM, a TGI [46] greater than 100 µM and a GI50 [47] of 39 µM. It also gave a TGI [47] greater than 100 µM, a GI50 [48] of 38.3 µM and a TGI [48] greater than 100 µM. The GI50 [49] was 19.8 µM, the TGI [49] was 43.3 µM and the GI50 [50] was 17 µM. The TGI [50] was 36.8 µM, the GI50 [51] was 16 µM and the TGI [51] was 41 µM.
